Measurements as given in ChEMBL document CHEMBL1201862, “PubChem BioAssay data set” (2004).
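Following 48 hours of exposure in 96-well plates, responses at five concentrations were used to interpolate endpoints linearly. Here, GI50 denotes the concentration required for 50% inhibition of growth.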 Calls of active or inactive are those of the source. Rule as the data show it: active = GI50 up to about 1.1 µM and inactive = higher.

What was measured:
Assay in all cases: NCI-60 cell line screen, 48 h
K562 = test system: K562
DMS-273 = test system: DMS-273
CCRF-CEM = test system: CCRF-CEM
NCI-H460 = test system: NCI-H460
LOX IMVI = test system: LOX IMVI
HCT-15 = test system: HCT-15
SF-268 = test system: SF-268
SNB-75 = test system: SNB-75
HL-60 = test system: HL-60
KM12 = test system: KM12
MOLT-4 = test system: MOLT-4
SK-MEL-2 = test system: SK-MEL-2
SW-620 = test system: SW-620
U-251 = test system: U-251
HOP-62 = test system: HOP-62
RPMI-8226 = test system: RPMI-8226
HOP-18 = test system: HOP-18
RXF 393 = test system: RXF 393
HT-29 = test system: HT-29
SK-OV-3 = test system: SK-OV-3
HOP-92 = test system: HOP-92
COLO 205 = test system: COLO 205
ACHN = test system: ACHN
M14 = test system: M14
DMS-114 = test system: DMS-114
UO-31 = test system: UO-31
UACC-62 = test system: UACC-62
NCI-H226 = test system: NCI-H226
DLD-1 = test system: DLD-1
SN12C = test system: SN12C
NCI-H23 = test system: NCI-H23
OVCAR-5 = test system: OVCAR-5
UACC-257 = test system: UACC-257
KM-20L2 = test system: KM-20L2
IGROV-1 = test system: IGROV-1
LXFL 529 = test system: LXFL 529
SNB-78 = test system: SNB-78
A549 = test system: A549
EKVX = test system: EKVX
HCT-116 = test system: HCT-116
Malme-3M = test system: Malme-3M
OVCAR-8 = test system: OVCAR-8
OVCAR-3 = test system: OVCAR-3
HCC 2998 = test system: HCC 2998
SNB-19 = test system: SNB-19
786-0 = test system: 786-0
A498 = test system: A498
M19-MEL = test system: M19-MEL
TK-10 = test system: TK-10
SK-MEL-28 = test system: SK-MEL-28
Hs-578T = test system: Hs-578T
SF-295 = test system: SF-295
MDA-MB-231 = test system: MDA-MB-231
NCI-H522 = test system: NCI-H522
T47D = test system: T47D
MDA-MB-435 = test system: MDA-MB-435
PC-3 = test system: PC-3
SK-MEL-5 = test system: SK-MEL-5
CAKI-1 = test system: CAKI-1
MDA-N = test system: MDA-N
SR = test system: SR
NCI/ADR-RES = test system: NCI/ADR-RES
MCF7 = test system: MCF7
SF-539 = test system: SF-539
DU-145 = test system: DU-145
BT-549 = test system: BT-549
OVCAR-4 = test system: OVCAR-4

Measured: GI50

CN(O)C(=O)SCC(NC(=O)CCC(N)C(=O)O)C(=O)NCC(=O)O (configuration not stated)
inactive: K562 305 µM | DMS-273 1.52 µM | CCRF-CEM 1.67 µM | NCI-H460 783 µM | LOX IMVI 1.46 µM | SF-268 1630 µM | SNB-75 618 µM | HL-60 318 µM | KM12 1050 µM | MOLT-4 1100 µM | SK-MEL-2 446 µM | SW-620 1760 µM | U-251 41.7 µM | HOP-62 173 µM | RPMI-8226 964 µM | HOP-18 619 µM | RXF 393 518 µM | HT-29 1.31 µM | SK-OV-3 294 µM | HOP-92 294 µM
24.3 µM: HCT-15

COc1cccc(C2CC(C)=Nc3c(ccc4c3C(=O)c3ccccc3C4=O)N2)c1O (configuration not stated)
26.9 µM: HCT-15
inactive: K562 > 100 µM | COLO 205 > 100 µM | ACHN 9.46 µM | NCI-H460 7.52 µM | M14 9.2 µM | DMS-114 > 100 µM | SNB-75 > 100 µM | UO-31 33 µM | UACC-62 > 100 µM | HL-60 5.41 µM | KM12 3.59 µM | NCI-H226 33.6 µM | DLD-1 15 µM | SN12C > 100 µM | NCI-H23 > 100 µM | OVCAR-5 > 100 µM | SW-620 20.5 µM | UACC-257 3 µM | KM-20L2 > 100 µM | U-251 3.78 µM | IGROV-1 > 100 µM | LXFL 529 > 100 µM | SNB-78 > 100 µM | HOP-62 3.24 µM | A549 > 100 µM | RPMI-8226 79.3 µM | EKVX > 100 µM | HCT-116 > 100 µM | Malme-3M > 100 µM | OVCAR-8 4.94 µM | HT-29 > 100 µM | OVCAR-3 9.71 µM | HCC 2998 > 100 µM | SNB-19 > 100 µM | 786-0 > 100 µM | A498 > 100 µM | HOP-92 > 100 µM | M19-MEL 9.62 µM

COc1cc(C2c3cc4c(cc3[C@@H](NCCCN3CCCC3=O)C3COC(=O)[C@H]23)OCO4)cc(OC)c1O (some centres not stated)
inactive: TK-10 30.3 µM | COLO 205 7.76 µM | ACHN 3.41 µM | SNB-75 1.67 µM | SK-MEL-28 15.4 µM | KM12 21 µM | SK-MEL-2 36.2 µM | EKVX > 100 µM | HOP-18 28.7 µM | RXF 393 6.84 µM | OVCAR-3 45.9 µM | HCC 2998 19.1 µM | SK-OV-3 4.29 µM

Nc1nc(Cl)c(C=O)c(NCC2(CO)CCC2)n1
inactive: Hs-578T 22.2 µM | K562 3.83 µM | SF-295 22.8 µM | CCRF-CEM 12.9 µM | TK-10 > 100 µM | COLO 205 25.7 µM | ACHN 37.8 µM | NCI-H460 31 µM | LOX IMVI 12.4 µM | M14 26.5 µM | SF-268 16.6 µM | SNB-75 24 µM | UO-31 21.8 µM | UACC-62 14.3 µM | HL-60 4.5 µM | MDA-MB-231 22.9 µM | SK-MEL-28 34.8 µM | KM12 43.1 µM | NCI-H522 3.56 µM | MOLT-4 18.3 µM | T47D 33.7 µM | NCI-H226 15.4 µM | MDA-MB-435 28.8 µM | SK-MEL-2 14.5 µM | SN12C 45.2 µM | PC-3 17.7 µM | NCI-H23 26.4 µM | SK-MEL-5 14.5 µM | OVCAR-5 > 100 µM | CAKI-1 13.6 µM | MDA-N 21.3 µM | SW-620 28.2 µM | UACC-257 24.8 µM | SR 3.21 µM | U-251 15.2 µM | IGROV-1 12.3 µM | NCI/ADR-RES 40 µM | HOP-62 25.4 µM | A549 91.6 µM | RPMI-8226 39.7 µM | EKVX 17.6 µM | MCF7 > 100 µM | SF-539 32.7 µM | RXF 393 17.8 µM | HCT-116 17.7 µM | Malme-3M 43.1 µM | DU-145 31.1 µM | OVCAR-8 15 µM | HT-29 31.4 µM | OVCAR-3 17.5 µM | HCC 2998 9.48 µM | SNB-19 17.1 µM | BT-549 28.6 µM | 786-0 76 µM | SK-OV-3 27.2 µM | A498 25.1 µM | HOP-92 15.3 µM | OVCAR-4 14.3 µM
11.8 µM: HCT-15
